The source of these data is US5594157A, “Process for making taxol derivatives” (Abbott Laboratories, priority 1995, dated 1997).

In brackets after ≈: the same amount, converted by molar mass. Like-named read-outs stand apart in the source and are kept apart here.

One test deals with A549. Put plainly: In vitro tumor cell cytotoxicity, three day MTT microtiter assay (A549). Format: cell-based, human. As to conditions: Homo sapiens, read-out: In vitro tumor cell cytotoxicity (IC50). The procedure: (§1) A three day microtiter assay was used to measure the growth inhibition of cultured cells exposed to a range of drug concentrations. Metabolic activity was measured by the cells' ability to reduce the tetrazolium dye, MTT (3-(4,5-dimethylthiazol-2-yl-2,5-diphenyltetrazolium bromide) to a quantifiable colored end product, which absorbs at 570 nm in the visible spectrum. Surviving cells reduce the MTT dye.
(§2) Test compounds were dissolved in dimethyl sulfoxide (DMSO) and diluted, first with Earle's Balanced Salt Solution, followed by culture medium, to twice the highest concentration of compound to be tested. From this concentrated stock, two-fold serial dilutions were prepared in 96-well microtiter trays, each well containing twice the desired final concentration of compound. Each concentration was tested in triplicate and compared to triplicate drug-free controls.
(§3) The cells were grown in the same medium used for diluting the compounds and then harvested using trypsinization. This involved removing the medium by aspiration; rinsing the cell monolayer twice with Earle's Balanced Salt Solution; adding trypsin (0.05%)/EDTA (0.53 mM; for each 25 cm^2, approximately 0.2 mL), tilting to cover the monolayer, and then withdrawing trypsin leaving only a thin film of solution; incubating at room temperature until the cell monolayers detached (as determined by visual and/or microscopic observation); adding medium contaiing fetal calf serum to stop the action of the trypsin and resuspend the cells; triturating to aid dissociation of cell clumps; and determining the number of cells per milliliter by electronic cell counter (e.g. Coulter Counter) or by mixing an aliquot of cell suspension with Trypan Blue (0.4% in normal saline) and counting the viable cells using a hemacytometer.
(§4) After harvesting and determination of viable cell counts, cell density was adjusted to 25,000 cells/mL. Inoculum (0.1 mL) containing the cells was then added to each well for a final concentration of 2,500 cells per well. Addition of the inoculum diluted the test compounds to the desired final concentration.
(§5) Microtiter trays were then incubated for three days at 36° C. in a humidified atmosphere containing 5% carbon dioxide. After three days, 20 microtiters of 5 mg/mL MTT in phosphate-buffered saline solution were added to each well. Trays were returned to the incubator for two to four hours to allow the surviving cells to reduce the dye. Medium and unreduced dye were removed by aspiration. DMSO was added to each well to dissolve the water-insoluble, colored end product of the dye reduction so that it could be measured spectrophotometrically at 570 nm.

A further test relates to P-388. Put plainly: In vitro tumor cell cytotoxicity, three day MTT microtiter assay (P-388). The following applies: P388, 72 h, read-out: In vitro tumor cell cytotoxicity (IC50). Format: cell-based, mouse. The procedure: as §1, §2, §3, §4, §5
In general terms: Tetrazolium assays rely on reduction of a dye to a coloured formazan, in cell work by metabolically active cells.

Test [1] has as its system advanced breast and ovarian cancers. The following applies: cited from earlier work.
The subject of a further test is other tumor types. As to conditions: preliminary investigations; cited from earlier work.
[2] abbreviates: 72 h, A549, 3 days, MTT, absorbance at 570 nm.
Where [3] appears, read: P-388 (mouse leukemia), 3 days, MTT, absorbance at 570 nm.

One may read the IC50 as the midpoint of a concentration-inhibition curve. Regarding `CC(=O)O[C@@H]1C2=C(C)[C@@H](OC(=O)[C@H](O)[C@@H](NC(=O)OCc3ccccc3)c3ccccc3)C[C@@](O)([C@@H](OC(=O)c3ccccc3)[C@@H]3[C@]4(OC(C)=O)CO[C@@H]4C[C@H](O)[C@@]3(C)[C@H]1O)C2(C)C` [Example 26, N-Debenzoyl-N-benzyloxycarbonyl-9-dihydrotaxol], the IC50 with A549 (A549, 72 h) came to 0.031 µg/mL (≈ 0.035 µM); with P-388 (Mus musculus), 0.057 µg/mL (≈ 0.0643 µM).

Turning to `CC(=O)O[C@@H]1C2=C(C)[C@@H](OC(=O)[C@H](O)[C@@H](NC(=O)C(C)(C)C)c3ccccc3)C[C@@](O)([C@@H](OC(=O)c3ccccc3)[C@@H]3[C@]4(OC(C)=O)CO[C@@H]4C[C@H](O)[C@@]3(C)[C@H]1O)C2(C)C` [Example 28, N-Debenzoyl-N-pivaloyl-9-dihydrotaxol], the half-maximal inhibitory concentration (IC50) with A549 (setting [2]) worked out at 0.11 µg/mL (≈ 0.132 µM); with P-388 (setting [3]), 0.083 µg/mL (≈ 0.0993 µM).

On to `CC(=O)N[C@@H](c1ccccc1)[C@@H](O)C(=O)O[C@H]1C[C@@]2(O)[C@@H](OC(=O)c3ccccc3)[C@@H]3[C@]4(OC(C)=O)CO[C@@H]4C[C@H](O)[C@@]3(C)[C@@H](O)[C@H](OC(C)=O)C(=C1C)C2(C)C` [Example 29, N-Debenzoyl-N-acetyl-9-dihydrotaxol], for which the IC50 worked out at 2.1 µg/mL (≈ 2.65 µM) with A549 (setting [2]) and 2.02 µg/mL (≈ 2.54 µM) in the test on P-388 (setting [3]).

In the case of `CC(=O)O[C@@H]1C2=C(C)[C@@H](OC(=O)[C@H](O)[C@@H](NC(=O)NC(C)(C)C)c3ccccc3)C[C@@](O)([C@@H](OC(=O)c3ccccc3)[C@@H]3[C@]4(OC(C)=O)CO[C@@H]4C[C@H](O)[C@@]3(C)[C@H]1O)C2(C)C` [Example 30, N-Debenzoyl-N-t-butylcarbamyl-9-dihydrotaxol], the IC50 worked out at 0.014 µg/mL (≈ 0.0165 µM) with A549 (A549, 72 h) and 0.017 µg/mL (≈ 0.02 µM) with P-388 (Mus musculus).

Regarding `CC(=O)O[C@H]1C(=O)[C@@]2(C)[C@H]([C@H](OC(=O)c3ccccc3)[C@]3(O)C[C@H](OC(=O)[C@H](O)[C@@H](NC(=O)c4ccccc4)c4ccccc4)C(C)=C1C3(C)C)[C@]1(OC(C)=O)CO[C@@H]1C[C@@H]2O` [Taxol], the “effectiveness in clinical trials” value in test [1] was “effective against advanced breast and ovarian cancers in clinical trials”. For the same molecule, the “activity against other tumor types” value with other tumor types is reported as “promising activity against a number of other tumor types”.
